The target of assay [1] is T1, human sodium-glucose cotransporter 2 (SGLT2) (Homo sapiens, UniProt P31639).
T1 construct: expressed in transfected cells; host or cells: NIH3T3 (mouse fibroblast) cells expressing hSGLT2
T1 sequence (P31639 1-672): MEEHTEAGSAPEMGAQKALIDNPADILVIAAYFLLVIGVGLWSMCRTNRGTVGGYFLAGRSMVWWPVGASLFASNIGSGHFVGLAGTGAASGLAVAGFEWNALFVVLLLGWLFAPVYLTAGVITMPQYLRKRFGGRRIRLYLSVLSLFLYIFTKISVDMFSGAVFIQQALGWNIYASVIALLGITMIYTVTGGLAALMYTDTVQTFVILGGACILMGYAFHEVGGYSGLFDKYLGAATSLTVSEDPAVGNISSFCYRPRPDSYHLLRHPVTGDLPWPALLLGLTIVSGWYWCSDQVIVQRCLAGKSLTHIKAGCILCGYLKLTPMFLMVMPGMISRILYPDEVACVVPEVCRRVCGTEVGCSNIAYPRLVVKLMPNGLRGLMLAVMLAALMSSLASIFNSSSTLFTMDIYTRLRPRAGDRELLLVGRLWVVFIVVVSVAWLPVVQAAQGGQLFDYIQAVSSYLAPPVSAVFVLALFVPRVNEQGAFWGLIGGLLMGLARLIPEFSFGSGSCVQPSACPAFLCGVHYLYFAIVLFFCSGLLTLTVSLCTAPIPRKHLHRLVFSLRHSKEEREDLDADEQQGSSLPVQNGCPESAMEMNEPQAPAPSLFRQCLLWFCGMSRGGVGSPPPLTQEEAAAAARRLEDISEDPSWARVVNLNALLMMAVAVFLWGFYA
As to the kind of experiment: In vitro SGLT2 inhibition, methyl-α-D-[U-14C]glucopyranoside uptake in NIH3T3-hSGLT2 cells. The class given is cell-based. The following applies: for Selectivity: IC50 SGLT1/IC50 SGLT2; for inhibition at 0.01 µM: SGLT2, 10 nM, read-out: % Inhibition rate ± SD 10 nM; for inhibition at 0.1 µM: SGLT2, 100 nM, read-out: % Inhibition rate ± SD 100 nM; for IC50: read-out: IC50 ± SD SGLT2. The method in brief: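 NIH3T3-hSGLT2 cells (40000/well, gelatin-coated, 2 mM sodium butyrate the next day) were preincubated 30 min in KRH-Na+, then given compound plus uptake buffer with methyl-α-D-[U-14C]glucopyranoside and ⅙ mM methyl-α-D-glucopyranoside. Uptake was read by scintillation counting, with KRH-acetylcholine as background.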

Assay [2] relates to SD rats. Description: Acute single administration, urinary glucose changes in SD rats. It is filed as in vivo, rat. On the set-up: Urine glucose concentration / The total amount of glucose excreted: unit not given here. The following applies: 1 mg/kg oral, after 24 h. The protocol:
(1) Acutely Administering Compound to Observed the Urinary Glucose Changes in SD Rats
Thirty-eight male normal SD rats were selected and randomly divided into 5 groups according to body weight and blood glucose, 6-8 in each group. […] After oral gavage, the rats were placed in rats metabolic cages, and urine was collected after 24 h, and the urine volume was recorded, the urine sugar concentration was determined, and urinary sugar content was calculated according to the following formula. Urine content=urinary sugar concentration×urine volume
Glucose levels in urine are measured by the glucose assay kit.
Data were expressed as mean±standard deviation (x±s), and Student's t test was used for statistical analysis of the data, p<0.05 was considered statistically significant.

Assay [3] deals with T2, hSGLT1 (Homo sapiens, UniProt P13866).
T2 sequence (P13866 1-664): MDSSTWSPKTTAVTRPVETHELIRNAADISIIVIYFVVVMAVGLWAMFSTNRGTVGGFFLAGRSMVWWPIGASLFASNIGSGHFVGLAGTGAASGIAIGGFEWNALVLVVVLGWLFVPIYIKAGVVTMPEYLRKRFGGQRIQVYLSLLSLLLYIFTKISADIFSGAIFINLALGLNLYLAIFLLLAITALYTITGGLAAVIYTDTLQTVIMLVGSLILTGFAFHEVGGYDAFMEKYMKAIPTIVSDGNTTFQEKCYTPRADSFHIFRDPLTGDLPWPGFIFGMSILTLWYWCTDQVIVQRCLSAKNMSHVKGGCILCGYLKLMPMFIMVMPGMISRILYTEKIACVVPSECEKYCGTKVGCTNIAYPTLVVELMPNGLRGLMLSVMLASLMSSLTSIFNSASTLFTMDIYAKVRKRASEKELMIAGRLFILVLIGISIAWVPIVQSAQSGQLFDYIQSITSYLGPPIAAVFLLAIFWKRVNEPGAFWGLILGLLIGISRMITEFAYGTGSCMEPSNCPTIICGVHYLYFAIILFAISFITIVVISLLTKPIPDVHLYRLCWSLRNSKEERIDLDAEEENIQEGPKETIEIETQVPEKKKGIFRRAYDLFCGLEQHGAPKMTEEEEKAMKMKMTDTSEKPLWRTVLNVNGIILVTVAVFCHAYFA
As to the kind of experiment: In vitro SGLT1 inhibition (hSGLT1 IC50 test). It is filed as cell-based. The following applies: read-out: IC50 ± SD SGLT1.

For `C[C@H]1O[C@]2(OCc3cc(Cl)c(Cc4ccc(-c5ccc(F)cc5)s4)cc32)[C@H](O)[C@@H](O)[C@@H]1O` [Example A31], in assay [1], the Selectivity stood at 19483, the inhibition at 0.01 µM is 67.5 ± 5.7%, the inhibition at 0.1 µM was determined as 91.5 ± 11.7% and the 50% inhibitory concentration (IC50) was 3.6 ± 0.7 nM. Moreover, in assay [2] (Table 3), the “The total amount of glucose excreted” value is 9.41 ± 6.18 and the Urine glucose concentration is 1.50 ± 0.60. The Urine volume in assay [2] (Table 3, in mL) came to 33.13 ± 9.99. In addition, the concentration for half-maximal inhibition (IC50) in assay [3] stood at 70100 ± 7900 nM.
Consider `C[C@H]1O[C@]2(OCc3cc(Cl)c(Cc4cc5ccccc5s4)cc32)[C@H](O)[C@@H](O)[C@@H]1O` [Example A35, (1S,3′R,4′S,5′S,6′R)-6′-methyl-6-(benzo[b]thiophene-2-methyl)-5-chloro-3′,4′,5′,6′-tetrahydro-3H-spiro[isobenzofuran-1,2′-pyran]-3′,4′,5′-triol], for which, in assay [1], the Selectivity is 81, the inhibition at 0.01 µM is 22.4 ± 7.5%, the inhibition at 0.1 µM was 95.7 ± 2% and the IC50 was found to be 24 ± 2.4 nM. In addition, the 50% inhibitory concentration (IC50) in assay [3] was 1950 ± 130 nM.
Regarding `C[C@H]1O[C@]2(OCc3cc(Cl)c(Cc4cc5ccccc5o4)cc32)[C@H](O)[C@@H](O)[C@@H]1O` [Example A36, (1S,3′R,4′S,5′S,6′R)-6′-methyl-6-(benzo[b]furan-2-methyl)-5-chloro-3′,4′,5′,6′-tetrahydro-3H-spiro[isobenzofuran-1,2′-pyran]-3′,4′,5′-triol], in assay [1], the Selectivity was 166, the inhibition at 0.01 µM stood at 24.4 ± 8.8%, the inhibition at 0.1 µM amounted to 103 ± 3.7% and the IC50 turned out to be 32.4 ± 8.2 nM. Also, the half-inhibitory concentration (IC50) in assay [3] amounted to 5400 ± 660 nM.
In the case of `CCc1ccc(Cc2cc3c(cc2F)CO[C@]32O[C@H](C)[C@@H](O)[C@H](O)[C@H]2O)s1` [Example A42, (1S,3′R,4′S,5′S,6′R)-6′-methyl-6-((5-ethylthienyl)-2-methyl)-5-fluoro-3′,4′,5′,6′-tetrahydro-3H-spiro[isobenzofuran-1,2′-pyran]-3′,4′,5′-triol], in assay [1], the Selectivity came to 988, the inhibition at 0.01 µM was found to be 62.4 ± 11.8%, the inhibition at 0.1 µM was found to be 104 ± 2.8% and the IC50 was 26.7 ± 2 nM. In assay [2] (Table 4), the “The total amount of glucose excreted” value is listed as 2.56 ± 2.37 and the Urine glucose concentration was 0.82 ± 0.73. In addition, the Urine volume in assay [2] (Table 4, in mL) amounted to 18.5 ± 3.51. Further, the IC50 in assay [3] came out at 25900 ± 4290 nM.
Regarding `CCc1ccc(Cc2cc3c(cc2C)CO[C@]32O[C@H](C)[C@@H](O)[C@H](O)[C@H]2O)s1` [Example A57, (1S,3′R,4′S,5′S,6′R)-5,6′-dimethyl-6-((5-ethylthienzyl)-2-methyl)-3′,4′,5′,6′-tetrahydro-3H-spiro[isobenzofuran-1,2′-pyran]-3′,4′,5′-triol], in assay [1], the inhibition at 0.01 µM stood at 31.1 ± 7.4%, the inhibition at 0.1 µM was 95.4 ± 2.8% and the IC50 is 8.4 ± 0.7 nM. In addition, in assay [2] (Table 4), the “The total amount of glucose excreted” value turned out to be 786.39 ± 96.43 and the Urine glucose concentration is recorded as 232.39 ± 50.5. For the same compound, the Urine volume in assay [2] (Table 4, in mL) was 19.17 ± 2.71. Further, the IC50 in assay [3] came to 1930 ± 160 nM.
As for `COCCc1ccc(Cc2cc3c(cc2Cl)CO[C@]32O[C@H](C)[C@@H](O)[C@H](O)[C@H]2O)s1` [Example A114, (1S,3′R,4′S,5′S,6′R)-5-chloro-6-((5-(2-methoxyethyl)thiophene-2-yl)methyl)-6′-methyl-3-3′,4′,5′,6′-tetrahydro-3H-spiro[isobenzofuran-1,2′-pyran]-3′,4′,5′-triol], in assay [1], the Selectivity is 83, the inhibition at 0.01 µM was determined as 18.3 ± 2.2%, the inhibition at 0.1 µM is 71.4 ± 2.8% and the concentration for half-maximal inhibition (IC50) was 43.5 ± 11.3 nM. The half-maximal inhibitory concentration (IC50) in assay [3] turned out to be 3600 ± 260 nM.
As to `CC(O)c1ccc(Cc2cc3c(cc2Cl)CO[C@]32O[C@H](C)[C@@H](O)[C@H](O)[C@H]2O)s1` (stereo partly drawn) [Example A118, (1S,3′R,4′S,5′S,6′R)-5-chloro-6-((5-(1-hydroxyethyl)thiophene-2-yl)methyl)-6′-methyl-3′,4′,5′,6′-tetrahydro-3H-spiro[isobenzofuran-1,2′-pyran]-3′,4′,5′-triol], in assay [1], the Selectivity is listed as 166, the inhibition at 0.01 µM was found to be 22.1 ± 3%, the inhibition at 0.1 µM stood at 91.8 ± 3.5% and the IC50 was 43.4 ± 12.9 nM. Besides, in assay [3], the 50% inhibitory concentration (IC50) came to 7200 ± 600 nM.
Turning to `C[C@H]1O[C@]2(OCc3cc(Cl)c(Cc4ccc(CCO)s4)cc32)[C@H](O)[C@@H](O)[C@@H]1O` [Example A119, (1S,3′R,4′S,5′S,6′R)-5-chloro-6-((5-(2-hydroxyethyl)thiophene-2-yl)methyl)-6′-methyl-3′,4′,5′,6′-tetrahydro-3H-spiro[isobenzofuran-1,2′-pyran]-3′,4′,5′-triol], in assay [1], the Selectivity is 167, the inhibition at 0.01 µM worked out at 22 ± 3.1%, the inhibition at 0.1 µM was 80 ± 2.7% and the half-inhibitory concentration (IC50) is 3.6 ± 0.8 nM. In assay [3], the IC50 turned out to be 600 ± 80 nM.

Source of the values: patent publication US10550143B2, “C,O-spiro aryl glycoside compounds, preparation therefor and use thereof” (SHANGHAI INSTITUTE OF MATERIA MEDICA, CHINESE ACADEMY OF …, priority 2015, dated 2020).
